One assay has as its target T1, Cxcr2 (Mus musculus, UniProt P35343).
T1 construct: Migration of WT bone marrow isolated neutrophils in response to hepcidin (1 μg/ml); endogenous in cells; host or cells: primary neutrophils isolated from bone marrow of WT mice (mixed C57BL6/129SV background)
T1 sequence (P35343 1-359): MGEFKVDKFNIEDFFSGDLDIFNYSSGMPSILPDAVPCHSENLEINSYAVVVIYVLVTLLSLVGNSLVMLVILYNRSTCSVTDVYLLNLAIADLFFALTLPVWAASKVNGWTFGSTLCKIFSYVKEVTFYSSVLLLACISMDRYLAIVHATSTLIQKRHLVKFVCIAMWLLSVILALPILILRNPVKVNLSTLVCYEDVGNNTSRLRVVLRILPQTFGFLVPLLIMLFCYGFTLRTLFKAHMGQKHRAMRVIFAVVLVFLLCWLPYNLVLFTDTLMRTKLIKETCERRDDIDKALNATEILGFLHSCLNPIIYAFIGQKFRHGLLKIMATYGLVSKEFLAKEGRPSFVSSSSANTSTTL
Kind of assay: Neutrophil migration towards hepcidin in presence of Cxcr2 inhibitor. Particulars: hepcidin 1 μg/ml. In kind it is cell-based. The procedure: Migration of WT bone marrow isolated neutrophils in response to hepcidin (1 μg/ml) in presence or not of the Cxcr2 inhibitor (sb225002, Sigma-Aldrich). n=3. mean+/−s.e.m.
(§1) Neutrophil migration was assessed using transwell (3 μm; BD-Falcon) coated with 10 μg/ml fibronectin (# F1141, Sigma-Aldrich). The cells (5×10^5/well) were diluted in 700 μL DMEM+10% SVF and migration towards hepcidin (Peptide International) in the bottom well was allowed for 2 hours at 37° C. The resulting migrated cells recovered from the bottom well were counted using hemocytometer.

Another assay concerns hepcidin expression. Kind of assay: Hepcidin expression (Q-PCR) in mouse intestine and liver 7 h after ip injection of TLR agonists. In kind it is in vivo. The note with it: WT mice. The procedure: Mice were ip injected with LPS (from E. coli O111:B4; 2 mg/kg), Zymosan A (from Saccharomyces cerevisiae, Sigma-Aldrich Z4250; 250 mg/kg), Poly:IC (Polyinosinic-polycytidylic acid sodium salt, Sigma-Aldrich P0913; 12.5 mg/kg), Flagellin (FLA-ST from Salmonella Typhimirium, InvivoGen, #12B06-MM; 1.5 mg/kg) or with a sterile saline solution (PBS) and sacrificed 7 hours later.
(§2) RNA extraction, reverse transcription, quantitative PCR and sequences of the primers used have been previously described^8. All samples were normalized to the threshold cycle value for cyclophilin-A.

For a further assay, the system named is NF-kB pathway. Kind of assay: Hepcidin-induced expression of CXCL1 and TNF-α in macrophages with pathway inhibitors. It counts as cell-based, mouse. An excerpt: Moreover, MyD88, a canonical adaptor for inflammatory signaling pathway, but not TLR4, was required for the hepcidin-triggered induction of CXCL1 and TNF-α. Indeed, macrophages isolated from TLR4−/− but not MyD88−/− mice were still able to mount an inflammatory response after addition of hepcidin.

For assay [1], the system named is WT bone marrow isolated neutrophils. Description: Neutrophil migration assay (transwell) towards hepcidin. In kind it is cell-based, mouse. The protocol: Bone marrows from WT mice were flushed from femurs and tibias with PBS using a 25 G needle. Tissues were homogenized through a 18 G needle and the suspension was passed through 70 μm and 40 μm cell strainers. Cells were centrifuged at 400 g for 10 min and resuspended in cold MACS buffer (PBS, BSA 0.5%, EDTA 2 mM, pH 7.4). After counting, cells were incubated on ice with FcBlock™ for 10 min, anti-Ly6C for 15 min and anti-biotin antibody microbeads for 15 min, following the manufacturer's instructions. Cells were washed with MACS buffer and centrifuged at 400 g for 10 min. Neutrophils were immuno-magnetically separated following filtration of the cell suspension through an LS column (Miltenyi) according to manufacturer's instructions.
as §1

For assay [2], the system named is macrophages. Description: Inflammatory gene expression (Q-PCR) in macrophages incubated with hepcidin-25. In kind it is cell-based, mouse. The procedure: a, Flow cytometry analysis of neutrophils in lamina propria of WT and KO mice. Left: Representative experiment with Ly6G^+ Ly6C^low cells shown after gating on CD45^+CD11b^+ cells; Right: pool of four experiments (mean+/−s.e.m; *p<0.05). b, Migration of WT bone marrow isolated neutrophils in response to hepcidin-25. (3 experiments performed in triplicate; mean+/−s.e.m; *p<0.05). c, CXCL1, CXCL2, IL-1beta, iNOS mRNA levels in macrophages incubated for 1 or 3 hours with 1 μg/ml, 10 μg/ml Hepcidin-25 or PBS (control). d, Immunohistochemistry using anti-mouse iNOS antibody on intestine of WT and Hepc^Δint mice upon PBS or LPS injection.
The gastrointestinal tract contains the largest reservoir of macrophages in the organism^17. Besides its proper chemoattractant property, the inventors hypothesized that hepcidin may influence the production of chemokines by the macrophages. Macrophages were incubated with hepcidin-25 at different time points (30 min, 1 h, 3 h, 24 h, 48 h).
as §2

For assay [3], the system named is macrophages. Description: CXCL1 and TNF-α protein accumulation by macrophages following hepcidin treatment. In kind it is cell-based, mouse. The note with it: at 7 hours. The procedure: Kinetic response of macrophage-derived CXCL1 and TNF-α following hepcidin treatment was further determined. […] Massive protein accumulation of CXCL1 and TNF-α reached respectively 300 and 150 pg/ml at 7 hours (Data not shown). Hepcidin stimulated IL-1beta, IL-6 and iNOS expression with a maximal induction at 3 hours with 10 μg/ml hepcidin (FIG. 2c) while the peak of TNF-alpha and Cox-2 expression occurred after 1 hour of hepcidin treatment. AMPs, such as LL37, typically function in this high concentration range^18,19 to induce proinflammatory molecules^20,21. This allows the production of inflammatory mediators in pathological conditions where AMPs concentrations can reach high values^18,19 and not in healthy tissues where inflammatory damage might otherwise harm host cells.

Assay [4] concerns Caco-2 intestinal cell line. Kind of assay: Addition of synthetic mature hepcidin to Caco-2 intestinal cell line. It counts as cell-based. The note with it: basolateral or apical side.
Assay [5] relates to Raw 264.7 (ATCC TIB-71) murine macrophage cell line. Description: CXCL2 and TNF-α expression (Q-PCR) in serum starved Raw 264.7 macrophages with Hepc-25. In kind it is cell-based. The protocol: FIG. 9: Serum starvation enhances the proinflammatory action of Hepc-25 in macrophages. Expression by Q-PCR of CXCL2 and TNF-α in Raw 264.7 (ATCC® TIB-71™) murine macrophage cell line serum starved or not for 1 hour before the addition of 10 μg/ml of Hepc-25 (Peptide International) for an additional hour. N=3 per group; mean+/−s.e.m. Statistical analysis by a two-way analysis of variance (ANOVA) followed by a Bonferroni posttest. **p<0.01; ***p<0.001.
Expression by Q-PCR of CXCL2 in Raw 264.7 (ATCC® TIB-71™) murine macrophage cell line serum starved for 1 hour or not before the addition of 1 or 10 μg/ml of Hepc-25 (Peptide International) for an additional hour. N=3 per group; mean+/−s.e.m. Statistical analysis by a two-way analysis of variance (ANOVA) followed by a Bonferroni posttest. **p<0.01; ****p<0.0001.

The values that follow come from US11203753B2, “Hepcidin antagonists for use in the treatment of inflammation” (INSERM (INSTITUT NATIONAL DE LA SANTE ET DE LA RECHERCHE …, priority 2015, dated 2021).

As to `O=C(Nc1ccc([N+](=O)[O-])cc1O)Nc1ccccc1Br` [sb225002], the “neutrophil migration towards hepcidin” value at Cxcr2 is “prevents neutrophil migration”.
For “Polyinosinic-polycytidylic acid sodium salt [poly:IC]”, the “hepcidin expression in the intestine” value in the assay with hepcidin expression is recorded as “induced”.
In the case of `CC(C)(C)c1ccc(S(=O)(=O)/C=C/C#N)cc1` [BAY 7085], the “hepcidin-induced expression of CXCL1 and TNF-α” value with NF-kB pathway is recorded as “strongly blunted”.
For the molecule “hepcidin: synthetic mature 25 amino acid hepcidin peptide (Peptide International)”, the migration of neutrophils result in assay [1] (bimodal dose response) is on record as “induced a dose-dependent migration of neutrophils”. Besides, in assay [1] (migration 2 hours at 37° C.), the “dose of peak response of neutrophil migration” value stood at 0.1 µg/mL. In addition, in the assay with macrophages [2], the “expression of the iron-responsive gene TfR1” value was “unchanged”; the “time of peak of TNF-alpha and Cox-2 expression” value came out at 1 h; the “time of peak of transient CXCL1 and TNF-α mRNA induction” value came to 1 h. In addition, the “expression of CXCL-1 and CXCL2” value in the assay on macrophages [2] (1 μg/ml hepcidin, 1 hour) is “slightly increased”. Moreover, the “time of maximal induction of IL-1beta, IL-6 and iNOS expression” value in the assay with macrophages [2] (10 μg/ml hepcidin) came out at 3 h. In addition, the “expression of CXCL-1 and CXCL2” value with macrophages [2] (10 μg/ml hepcidin, 1 hour) was “maximally induced”. The “fold change of genes statistically induced (TNF-α, CXCL1, CXCL2, NF-kappa-B inhibitor zeta, Mir-146)” value with macrophages [2] (1 hour) is given as above 2. Further, in the assay on macrophages [3], the CXCL1 protein accumulation came out at 300 pg/mL and the TNF-α protein accumulation stood at 150 pg/mL. Moreover, the iNOS expression entry in assay [4] is on record as “did not induce”. The “expression of Cxcl2” value in assay [5] (1 μg/ml, serum starvation 1 hour, 1 additional hour) was “robust expression”. Further, in assay [5] (serum-free conditions versus not starved), the “stimulatory effect on macrophage-mediated cytokine release” value is “clearly enhanced”.
As to `Cc1ccc(S(=O)(=O)/C=C/C#N)cc1` [BAY 7082], the “hepcidin-induced expression of CXCL1 and TNF-α” value in the assay with NF-kB pathway is recorded as “strongly blunted”.

B1: flagellin: FLA-ST from Salmonella Typhimirium, agonist of TLR5 (protein, UniProt P06179 2-495, looked up)
Flagellin: AQVINTNSLSLLTQNNLNKSQSALGTAIERLSSGLRINSAKDDAAGQAIANRFTANIKGLTQASRNANDGISIAQTTEGALNEINNNLQRVRELAVQSANSTNSQSDLDSIQAEITQRLNEIDRVSGQTQFNGVKVLAQDNTLTIQVGANDGETIDIDLKQINSQTLGLDTLNVQQKYKVSDTAATVTGYADTTIALDNSTFKASATGLGGTDQKIDGDLKFDDTTGKYYAKVTVTGGTGKDGYYEVSVDKTNGEVTLAGGATSPLTGGLPATATEDVKNVQVANADLTEAKAALTAAGVTGTASVVKMSYTDNNGKTIDGGLAVKVGDDYYSATQNKDGSISINTTKYTADDGTSKTALNKLGGADGKTEVVSIGGKTYAASKAEGHNFKAQPDLAEAAATTTENPLQKIDAALAQVDTLRSDLGAVQNRFNSAITNLGNTVNNLTSARSRIEDSDYATEVSNMSRAQILQQAGTSVLAQANQVPQNVLSLLR
As for B1, the “hepcidin expression in the intestine” value with hepcidin expression is “induced”.
